pIC50: −log10 of the molar value.
Tested on: 922993-354-T-J3-PDC complex spheroids, viability, % test/control
Assay: Anticancer human tumor 922993-354-T-J3-PDC patient-derived endometrial carcinoma cell line growth inhibition [CLK]
Details: for pIC50: curve of first compound; for viability, T/C: stronger effect = lower value; active means viability on the fitted dose curve at most 10% of control; inactive means the rest
Procedure, shortened: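 Multi-cell-type spheroids combined patient-derived tumor cells with HUVEC endothelial cells and human mesenchymal stem cells. Paired agents were dosed in half-log steps down from about clinical Cmax, or from 10 microM where Cmax was unknown.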

[1] = second compound 0.0316 µM, first compound 0.0316 µM
[2] = second compound 0.0316 µM, first compound 0.1 µM
[3] = second compound 0.0316 µM, first compound 0.316 µM
[4] = second compound 0.0316 µM, first compound 1 µM
[5] = second compound 0.1 µM, first compound 0.0316 µM
[6] = second compound 0.1 µM, first compound 0.1 µM
[7] = second compound 0.1 µM, first compound 0.316 µM
[8] = second compound 0.1 µM, first compound 1 µM
[9] = second compound 0.316 µM, first compound 0.0316 µM
[10] = second compound 0.316 µM, first compound 0.1 µM
[11] = second compound 0.316 µM, first compound 0.316 µM
[12] = second compound 0.316 µM, first compound 1 µM
[13] = second compound 1 µM, first compound 0.0316 µM
[14] = second compound 1 µM, first compound 0.1 µM
[15] = second compound 1 µM, first compound 0.316 µM
[16] = second compound 1 µM, first compound 1 µM
[17] = second compound 3.16 µM, first compound 0.0316 µM
[18] = second compound 3.16 µM, first compound 0.1 µM
[19] = second compound 3.16 µM, first compound 0.316 µM
[20] = second compound 3.16 µM, first compound 1 µM
[21] = second compound 10 µM, first compound 0.0316 µM
[22] = second compound 10 µM, first compound 0.1 µM
[23] = second compound 10 µM, first compound 0.316 µM
[24] = second compound 10 µM, first compound 1 µM
[25] = second compound 0.0316 µM, first compound 0.00316 µM
[26] = second compound 0.0316 µM, first compound 0.01 µM
[27] = second compound 0.1 µM, first compound 0.00316 µM
[28] = second compound 0.1 µM, first compound 0.01 µM
[29] = second compound 0.316 µM, first compound 0.00316 µM
[30] = second compound 0.316 µM, first compound 0.01 µM
[31] = second compound 1 µM, first compound 0.00316 µM
[32] = second compound 1 µM, first compound 0.01 µM
[33] = second compound 3.16 µM, first compound 0.00316 µM
[34] = second compound 3.16 µM, first compound 0.01 µM
[35] = second compound 10 µM, first compound 0.00316 µM
[36] = second compound 10 µM, first compound 0.01 µM
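Further: spheroids exposed to the agents for 7 days before readout.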

CC(Nc1ccc2c(c1)OCCn1cc(N3C(=O)OCC3C(F)F)nc1-2)C(N)=O (stereo unspecified) + CNC(=O)c1ccc(Nc2nc(OC3CCCC3)c3c(-c4ccc5nc(C)oc5c4)c[nH]c3n2)c(OC)c1
inactive: viability, T/C [1] 116% | viability, T/C [2] 106% | viability, T/C [3] 84.8% | viability, T/C [4] 70.6% | viability, T/C (second compound 0.0316 µM, first compound 3.16 µM) 57% | viability, T/C (second compound 0.0316 µM, first compound 10 µM) 31.7% | viability, T/C [5] 108% | viability, T/C [6] 102% | viability, T/C [7] 99.5% | viability, T/C [8] 74.5% | viability, T/C (second compound 0.1 µM, first compound 3.16 µM) 55.9% | viability, T/C (second compound 0.1 µM, first compound 10 µM) 37% | viability, T/C [9] 71.7% | viability, T/C [10] 69.3% | viability, T/C [11] 77.6% | viability, T/C [12] 63.8% | viability, T/C (second compound 0.316 µM, first compound 3.16 µM) 40% | viability, T/C (second compound 0.316 µM, first compound 10 µM) 31.8% | viability, T/C [13] 39.8% | viability, T/C [14] 36.5% | viability, T/C [15] 26.4% | viability, T/C [16] 23.1% | viability, T/C (second compound 1 µM, first compound 3.16 µM) 15.2% | viability, T/C (second compound 1 µM, first compound 10 µM) 10.8% | viability, T/C [17] 35.1% | viability, T/C [18] 27.4% | viability, T/C [19] 24% | viability, T/C [20] 16.3% | viability, T/C (second compound 3.16 µM, first compound 3.16 µM) 12.3% | viability, T/C (second compound 3.16 µM, first compound 10 µM) 10.8% | viability, T/C [21] 28.9% | viability, T/C [22] 27.2% | viability, T/C [23] 21.5% | viability, T/C [24] 17.6% | viability, T/C (second compound 10 µM, first compound 3.16 µM) 13.4%
active: viability, T/C (second compound 10 µM, first compound 10 µM) 9.54%
5.42: pIC50 (second compound 0.0316 µM)
5.38: pIC50 (second compound 0.1 µM)
> 7.50: pIC50 (second compound 1 µM) | pIC50 (second compound 3.16 µM) | pIC50 (second compound 10 µM)
5.71: pIC50 (second compound 0.316 µM)

CCN1CCN(Cc2ccc(Nc3ncc(F)c(-c4cc(F)c5nc(C)n(C(C)C)c5c4)n3)nc2)CC1 + CNC(=O)c1ccc(Nc2nc(OC3CCCC3)c3c(-c4ccc5nc(C)oc5c4)c[nH]c3n2)c(OC)c1
inactive: viability, T/C [25] 106% | viability, T/C [26] 93.2% | viability, T/C [1] 98.5% | viability, T/C [2] 88.5% | viability, T/C [3] 69% | viability, T/C [4] 59.9% | viability, T/C [27] 103% | viability, T/C [28] 93.4% | viability, T/C [5] 92.4% | viability, T/C [6] 76.7% | viability, T/C [7] 66.9% | viability, T/C [8] 53.8% | viability, T/C [29] 58% | viability, T/C [30] 59.2% | viability, T/C [9] 57.4% | viability, T/C [10] 56.4% | viability, T/C [11] 45.5% | viability, T/C [12] 45.7% | viability, T/C [31] 35.6% | viability, T/C [32] 33.6% | viability, T/C [13] 33.6% | viability, T/C [14] 35.9% | viability, T/C [15] 30.5% | viability, T/C [16] 38.1% | viability, T/C [33] 29.4% | viability, T/C [34] 27.9% | viability, T/C [17] 30.5% | viability, T/C [18] 31.5% | viability, T/C [19] 31.6% | viability, T/C [20] 35.5% | viability, T/C [35] 28.6% | viability, T/C [36] 29.2% | viability, T/C [21] 31.9% | viability, T/C [22] 29% | viability, T/C [23] 38.4% | viability, T/C [24] 36.3%
> 8.50: pIC50 (second compound 1 µM) | pIC50 (second compound 3.16 µM) | pIC50 (second compound 10 µM)
6.53: pIC50 (second compound 0.316 µM)
< 6.00: pIC50 (second compound 0.0316 µM) | pIC50 (second compound 0.1 µM)

COc1c(OCCCN2CCOCC2)ccc2c3n(c(=NC(=O)c4cnc(N)nc4)nc12)CCN3 + CNC(=O)c1ccc(Nc2nc(OC3CCCC3)c3c(-c4ccc5nc(C)oc5c4)c[nH]c3n2)c(OC)c1
6.67: pIC50 (second compound 0.0316 µM)
6.77: pIC50 (second compound 0.316 µM)
inactive: viability, T/C [25] 92.2% | viability, T/C [26] 88.6% | viability, T/C [1] 83.5% | viability, T/C [2] 72.2% | viability, T/C [3] 38.9% | viability, T/C [4] 14.8% | viability, T/C [27] 123% | viability, T/C [28] 100% | viability, T/C [5] 108% | viability, T/C [6] 78.2% | viability, T/C [7] 40% | viability, T/C [8] 15% | viability, T/C [29] 90.5% | viability, T/C [30] 87.9% | viability, T/C [9] 74.4% | viability, T/C [10] 63.5% | viability, T/C [11] 35.6% | viability, T/C [12] 10.8% | viability, T/C [31] 42.2% | viability, T/C [32] 37% | viability, T/C [13] 27.9% | viability, T/C [14] 20.6% | viability, T/C [15] 10.1% | viability, T/C [33] 32.6% | viability, T/C [34] 28.9% | viability, T/C [17] 22.5% | viability, T/C [18] 11.8% | viability, T/C [35] 31.1% | viability, T/C [36] 25.5% | viability, T/C [21] 20% | viability, T/C [22] 11.7%
6.62: pIC50 (second compound 0.1 µM)
active: viability, T/C [16] 1.71% | viability, T/C [19] 7.41% | viability, T/C [20] 1.47% | viability, T/C [23] 7.11% | viability, T/C [24] 1.68%
> 8.50: pIC50 (second compound 1 µM) | pIC50 (second compound 3.16 µM) | pIC50 (second compound 10 µM)

Source: PubChem BioAssay AID2060606 (Molecular Pharmacology Branch, DTP, NCI, 2025)
